Data taken from a melting point compilation (Tetko et al.; mined from patent text by program, amines drawn as free bases though some values may be those of a salt).

Row | Compound | melting point
1 | CC(=O)c1cc(CC(=O)O)cc2c1NC(C(F)(F)F)CC2 (centres undefined) | 173 to 174 °C
2 | O=C(/C=C/c1ccc(Br)cc1)Nc1ccccc1C(=O)O | 215 to 216 °C
3 | CCN(CC)c1cc(=S)ss1 | 93 °C
4 | NC(=O)c1c(C(=O)O)cnn1-c1ccc(Cl)cc1 | 249 to 250 °C
5 | NS(=O)(=O)c1ccc(CNC(=O)c2ccccc2SSc2ccccc2C(=O)NCc2ccc(S(N)(=O)=O)cc2)cc1 | 267 to 269 °C
6 | Fc1cnc(Nc2nc3c(s2)CCN(CCCN2CCC(F)(F)CC2)c2n[nH]cc2-3)nc1 | 238 to 240 °C
7 | CCn1cc(C(=O)O)c(=O)c2cc(F)c(N3C[C@@H](N)[C@@H]3C)cc21 (relative stereo) | 232 to 235 °C
8 | Cn1c(=O)c2c(ncn2CN2CCCC2)n(C)c1=O | 105 to 108 °C
9 | Cc1sc(C#N)c2c1C(=O)CC(C)(C)C2 | 73 to 75 °C
10 | CC(c1cc(Cl)cc([N+](=O)[O-])c1O)c1cc(Br)cc([N+](=O)[O-])c1O (centres undefined) | 161 °C
11 | O=C(Nc1ccccc1Cl)c1ccccc1SSc1ccccc1C(=O)Nc1ccccc1Cl | 247 to 249 °C
12 | CN(C)c1ccc2ccc(=O)oc2c1 | 161 °C
13 | CC1(C)CC2(CC(C)(C)c3ccc(Oc4cccc([N+](=O)[O-])c4)cc32)c2cc(Oc3cccc([N+](=O)[O-])c3)ccc21 | 174 to 175 °C
14 | CC(=O)Nc1nsnc1-c1c(Cl)cccc1Cl | 180 to 185 °C
15 | COc1ccccc1N1CCN(CCc2ccc3[nH]c(=O)oc3c2)CC1 | 182 to 184 °C
16 | COc1c(Cl)ccc(-c2nc(C(=O)OC(C)C)cc(Cl)c2Cl)c1F | 124 to 128 °C
17 | CCC(Cl)C(=O)Nc1c(C(=O)CC(=O)Nc2ccccn2)cccc1C(F)(F)F (centres undefined) | 137 °C
18 | CC(=O)Oc1ccc(C(=O)O)c2ccccc12 | 182 to 184 °C
19 | CN(C)C1(c2ccccc2)CCC(c2cc3ccccc3n2S(=O)(=O)c2ccccc2)CC1 (centres undefined) | 139 to 142 °C

Row | Compound | melting point
20 | COc1ccc2cc([C@H](C)C(=O)OCCC(C)(C)C)ccc2c1 | 92 to 94 °C
21 | O=C(O)C(O)=Cc1ccc([N+](=O)[O-])s1 | 192 to 193 °C
22 | COc1ccc2[nH]ncc2c1C | 148 to 149 °C
23 | CC(=NO)C1=CCC2C3CCC4CC=CCC4(C)C3C(=O)CC12C (centres undefined) | 168 to 182 °C
24 | ON=Cc1cccc(Oc2ccccc2)c1 | 45 to 46 °C
25 | Cc1ccc(NC(=O)c2ccc(N)c([N+](=O)[O-])c2)cc1C | 192 to 195 °C
26 | CCCCOc1ccc(C(=O)O)c(OC)c1 | 94 to 96 °C
27 | COCOc1cccc2c1CCC2=O | 51 to 54 °C
28 | CC(C)CCCC(C)(C)NC(=O)CN1C(=O)c2ccccc2C1=O | 162 to 163 °C
29 | CC12CCCc3cc(N(CC4CC4)c4ncc(C(=O)O)cn4)cc(c31)CCC2 | 123 to 124 °C
30 | Cc1nc(-c2ccc(C(=O)O)s2)no1 | 218 to 220 °C
31 | CNC(=O)c1cc2[nH]c(C)nc2c2c1CCC1(Cc3ccccc3C1)N2 | 240 to 241 °C
32 | CNC(Cc1ccccc1NC(=O)C(C)(C)C)c1ccccc1C (centres undefined) | 77 to 79 °C
33 | COc1cc2oc3ccc(C#N)cc3c2cc1F | 206 to 208 °C
34 | CCCCCCCCCCCCCCCCCCOCC(O)Cn1ccc(N)nc1=O (centres undefined) | 153 to 154 °C
35 | CC12CCC3c4cc(OCC(F)(F)F)c(O)cc4C(=NO)CC3C1CCC2O (centres undefined) | 187 to 191 °C
36 | CC(C)(C)NC(=O)[C@@H]1C[C@H](Br)CN1C(=O)[C@@H](O)[C@H](Cc1ccccc1)NC(=O)[C@H](CC(N)=O)NC(=O)OCc1ccccc1 | 100 to 105 °C
37 | COc1cc(Nc2c(C#N)cnc3ccc(/C=C/CCN4CCOCC4)cc23)cc(OC)c1OC | 86 to 87 °C
38 | CC(C)(C)OC(=O)ON1C(C)(C)CC(OC(=O)c2ccccc2)CC1(C)C | 109 to 111 °C

Row | Compound | melting point
39 | COc1cc([N+](=O)[O-])ccc1OCC(=O)C1CC1 | 112 to 113 °C
40 | N#Cc1cc(F)ccc1O | 121 to 122 °C
41 | CCOC(=O)C1C(c2ccc(I)cc2)CC(=O)N1C (centres undefined) | 120 to 121 °C
42 | COc1cc(OC)cc(N2CCN(C(=O)Nc3cc(-c4ccccn4)nc4ccccc34)CC2)c1 | 97 to 98 °C
43 | CNC(=O)CC1CN=C(c2cc3cc(Oc4ccc(S(C)(=O)=O)cn4)cc(OC(C)C)c3[nH]2)S1 (centres undefined) | 190 to 192 °C
44 | CCOCCNC(=O)C(c1ccccc1)c1ccccc1 | 83.5 to 86.2 °C
45 | CN1CCC(=O)C(C(c2ccc(F)cc2)c2ccc(F)cc2)C1 (centres undefined) | 127 to 129 °C
46 | ClCc1nnnn1C1CCCCC1 | 101 to 104 °C
47 | Nc1nc2c(ncn2Cc2ccoc2)c(=O)[nH]1 | 308 to 310 °C
48 | Nc1sc2c(c1C(=O)c1ccc(Cl)cc1)CCNC2 | 164 to 166 °C
49 | CC(=O)NN1CCN(CCc2c[nH]c3ccccc23)CC1 | 183 to 186 °C
50 | CCOC(=O)c1cc2cc(OC(F)(F)F)cc(N(C)S(=O)(=O)c3cccs3)c2[nH]1 | 149 to 150 °C
51 | CN(C)CCCOC(=O)c1cccc2c(-c3ccccc3)c([N+](=O)[O-])oc12 | 65.5 to 67.5 °C
52 | CC(C)(C)n1nc(Nc2ccccc2)c(C#N)c1N | 123 to 125 °C
53 | CC(=O)OC(c1cccc(Cl)c1Cl)C(Cl)(Cl)C(F)(F)F (centres undefined) | 92 to 95 °C
54 | O=c1[nH]c2ccc3c(c2o1)OC(CN1CC=C(c2c[nH]c4ccccc24)CC1)CO3 (centres undefined) | 202 °C
55 | Cc1nccn1CCCNC(=O)c1ccc(Cl)nc1 | 175 to 177 °C
56 | CCn1cnc2c(Nc3ccc(NC(=O)OC)cc3)nc(N[C@H]3CC[C@H](O)CC3)nc21 | 131 to 135 °C

Other lines, results leading:

Row | melting point | Compound
57 | 154 to 157 °C | COc1ccc(Sc2c([N+](=O)[O-])ccc(Cl)c2C(=O)O)cc1
58 | 238 to 240 °C | CSc1ccc(-c2cc(-c3nc4ccccc4c(=O)n3-c3ccc(C)cc3)sc2N2CCOCC2)cc1
59 | 93 to 116 °C | CCn1c(C)c(C2(N(c3ccccc3)c3ccc(NC(C)=O)cc3)OC(=O)c3ccccc32)c2ccccc21 (centres undefined)
60 | 129 to 131 °C | O=C1CCCN(C(=O)c2ccccc2)C(=O)CCc2cc(Cl)ccc21
61 | 178 to 191 °C | O=C(Nc1cccc2c(N3CCN(Cc4ccccc4)C3=O)ccnc12)c1c(Cl)cccc1Cl
62 | 156 to 157 °C | O=C(Nc1ccc(F)cc1)NN1CC=CCC1
63 | 150 to 151 °C | Cc1ccccc1-c1nc(-c2ccc(Cl)cc2)n[nH]1
64 | 88 to 89 °C | COC(=O)CCc1oc(-n2ccnc2SC)nc1-c1ccc(Cl)cc1
65 | 49 to 51 °C | CCCOC(=O)C(C)Oc1ccc(Oc2cnc3cc(F)ccc3n2)cc1F (centres undefined)
66 | 128 to 131 °C | CCc1nc2c(cnn2CC)c(NC2CCOCC2)c1CNC(=O)c1cccc(C(=O)NCc2ccc(F)c(-c3cccc(CN4CCCCC4)c3)c2)c1
67 | 187 to 190 °C | CN(CCN1CCC[C@@H](C(=O)O)C1)C1c2ccccc2CCc2ccccc21
68 | 136 °C | CSc1ccc(-c2nn(CC3CC3)c(=S)cc2-c2ccc(F)cc2)cc1
69 | 149 to 150 °C | CCn1cncc1/C=C/c1cn(-c2ccccc2)nc1OCc1ccc(OCc2nc(-c3ccc(CC(=O)O)cc3)oc2C)c(OC)c1
70 | > 350 °C | O=c1cc2c3cccnc3sn2c2ccccc12
71 | 96.5 to 98 °C | COc1ccc(Oc2ccc3ccccc3n2)cc1
72 | 343 to 345 °C | O=c1[nH]c2cc(Br)ccc2c(O)c1-c1ccccc1
73 | 174 °C | CCOc1ccc2c(c1)C(C)(c1ccccc1Cl)C(=O)N2S(=O)(=O)c1ccc(C(=O)O)cc1 (centres undefined)
74 | 86 °C | CN1CCC(Cn2sc3cc(Cl)ccc3c2=O)CC1
75 | 55 to 58 °C | O=C(c1ccccc1)N1CCC(Nc2ccccc2Oc2ccc(Cl)cc2Cl)CC1
76 | 91 to 93 °C | CCc1ccc(Nc2c(C(=O)NOC(CO)CO)ccc(F)c2F)c(F)c1
77 | 123 to 125 °C | CCOC(=O)c1cc2cc(CCNS(=O)(=O)c3ccc(Cl)cc3)ccc2o1
78 | 248 to 250 °C | N#Cc1cnc2cc(Br)sc2c1Nc1ccc(Oc2ccccc2)cc1

Row | melting point | Compound
79 | 145 °C | O=C(NCCc1ccccc1)c1ccccc1-c1ccccc1CNS(=O)(=O)c1cccc(C(F)(F)F)c1
80 | 147 to 150 °C | CC1(C)OC(=O)C(C(c2ccccc2)c2c[nH]c3ccccc23)C(=O)O1 (centres undefined)
81 | 109 to 110 °C | O=C(NCCN1CCC(Oc2ccc(F)cc2Cl)CC1)c1ccc(-n2cccn2)nc1
82 | 87 to 90 °C | COc1ccc(-c2cc(C(N)(C(F)(F)F)C(F)(F)F)sc2-c2ccc(OC)cc2)cc1
83 | 237 to 241 °C | COc1ccc(C2Sc3cc(Cl)ccc3NC(=O)C2O)cc1 (centres undefined)
84 | 56 °C | CCN(CC)C(=O)c1cc(-c2ccccc2)c2occc2c1
85 | 291 to 293 °C | Cc1nc2cc(Cl)ccc2c(=O)n1C1CCC(=O)NC1=O (centres undefined)
86 | 74 to 77 °C | O=[N+]([O-])c1ccc2c(c1)CC(Cl)c1ccccc1S2 (centres undefined)
87 | 151 to 153 °C | Clc1ccccc1C1=NN=C(c2ccccc2Cl)C(c2ccccc2)C1 (centres undefined)
88 | 113 °C | COCCCNCCCc1ccc(-c2cnc(N)c(C(=O)Nc3cccnc3)n2)cc1
89 | 281 to 284 °C | COc1ccc(-c2ccc(C(=O)O)cc2)c2c1OCCO2
90 | 160 °C | CN(Cc1cccc(-c2ccc(CC3SC(=O)NC3=O)cc2)c1)C(=O)c1cccs1 (centres undefined)
91 | > 270 °C | O=c1[nH]c2cc([N+](=O)[O-])c(S(=O)(=O)c3cccc4cnccc34)cc2o1
92 | 240 to 242 °C | CCCn1nc(C)c(C(=O)O)c1Cc1ccc(-c2ccccc2-c2nnn[nH]2)cc1
93 | 212 °C | CN(C)c1ccc(-c2cnc(N)c([N+](=O)[O-])c2)cc1
94 | 107 to 109 °C | COc1ccc(NC(=O)c2ccccc2-c2cccc(OC)c2)cc1
95 | 152 to 154 °C | O=C(O)C(CSc1nccs1)CS(=O)(=O)c1ccc(-c2ccc(Cl)cc2)cc1 (centres undefined)
96 | 161 to 162 °C | CCOC(=O)c1cn(-c2cc3ccccc3cn2)cn1
97 | 112 to 113 °C | Nc1cccc(C(=O)c2ccc(Oc3ccccc3)c(N)c2)c1
98 | 255 to 256 °C | CCn1nc(-c2cnc(N)nc2-c2ccccc2)ccc1=O
99 | 204 to 205 °C | O=Cc1ccc(NC(=O)c2cc(F)cc(N3CCOCC3)c2)c2ccccc12
